# Measurements taken from ChEMBL document CHEMBL2176890, “2-(3-fluoro-4-methylsulfonylaminophenyl)propanamides as potent transient receptor potential vanilloid 1 (TRPV1) antagonists: structure-activity relationships of 2-amino derivatives in the N-(6-trifluoromethylpyridin-3-ylmethyl) C-region” (J Med Chem, 2012).
# Calls of active or inactive are those of the source. No cut-off for these calls is given here.
# How the values were obtained:
# [1] = target: T1, Transient receptor potential cation channel subfamily V member 1 (Homo sapiens, UniProt Q8NER1); test: Antagonist activity at human TRPV1 expressed in CHOK1 cells assessed as inhibition of pH-induced activity by FLIPR assay; type: functional, cell-based, CHO-K1
# [2] = target: T1, Transient receptor potential cation channel subfamily V member 1; test: Antagonist activity at human TRPV1 expressed in CHOK1 cells assessed as inhibition of capsaicin-induced activity by FLIPR assay; type: functional, cell-based, CHO-K1
# Rattus norvegicus [3] = test: Toxicity in po dosed CCI-induced Sprague-Dawley rat neuropathic pain model assessed as decreased locomotion; type: organism-based; details: in vivo
# [4] = target: T1, Transient receptor potential cation channel subfamily V member 1; test: Antagonist activity at human TRPV1 expressed in CHOK1 cells assessed as inhibition of N-acetyldopamine-induced activity after 5 mins by FLIPR assay; type: functional, cell-based, CHO-K1
# Rattus norvegicus [5] = test: Analgesic activity in CCI-induced Sprague-Dawley rat neuropathic pain model assessed as reduction in paw withdrawal measured 30 mins after po administration; type: functional, organism-based
# [6] = target: T1, Transient receptor potential cation channel subfamily V member 1; test: Antagonist activity at human TRPV1 expressed in CHOK1 cells assessed as inhibition of heat-induced activity after 5 mins by FLIPR assay; type: functional, cell-based, CHO-K1
# Rattus norvegicus [7] = test: Toxicity in po dosed CCI-induced Sprague-Dawley rat neuropathic pain model assessed as sedation; type: organism-based; details: in vivo
# Rattus norvegicus [8] = test: Analgesic activity in CCI-induced Sprague-Dawley rat neuropathic pain model assessed as reduction in paw withdrawal at 3.16 mg/kg, po after 45 mins; type: functional
# Rattus norvegicus [9] = test: Analgesic activity in CCI-induced Sprague-Dawley rat neuropathic pain model assessed as reduction in paw withdrawal measured 45 mins after po administration; type: functional
# Mus musculus [10] = test: Inhibition of capsaicin-induced hypothermia in NMRI mouse at 0.3 mg/kg, po administered 15 mins prior challenge; type: functional, organism-based; set-up: dose 0.3 mg/kg
# Mus musculus [11] = test: Acute toxicity in C57BL/6J mouse assessed as hyperthermia at 1 mg/kg, po at 45 to 60 mins; details: in vivo
# Mus musculus [12] = test: Acute toxicity in TRPV1 knockout mouse assessed as hyperthermia at 1 mg/kg, po at 45 to 60 mins; details: in vivo
# T1 sequence (Q8NER1 whole entry): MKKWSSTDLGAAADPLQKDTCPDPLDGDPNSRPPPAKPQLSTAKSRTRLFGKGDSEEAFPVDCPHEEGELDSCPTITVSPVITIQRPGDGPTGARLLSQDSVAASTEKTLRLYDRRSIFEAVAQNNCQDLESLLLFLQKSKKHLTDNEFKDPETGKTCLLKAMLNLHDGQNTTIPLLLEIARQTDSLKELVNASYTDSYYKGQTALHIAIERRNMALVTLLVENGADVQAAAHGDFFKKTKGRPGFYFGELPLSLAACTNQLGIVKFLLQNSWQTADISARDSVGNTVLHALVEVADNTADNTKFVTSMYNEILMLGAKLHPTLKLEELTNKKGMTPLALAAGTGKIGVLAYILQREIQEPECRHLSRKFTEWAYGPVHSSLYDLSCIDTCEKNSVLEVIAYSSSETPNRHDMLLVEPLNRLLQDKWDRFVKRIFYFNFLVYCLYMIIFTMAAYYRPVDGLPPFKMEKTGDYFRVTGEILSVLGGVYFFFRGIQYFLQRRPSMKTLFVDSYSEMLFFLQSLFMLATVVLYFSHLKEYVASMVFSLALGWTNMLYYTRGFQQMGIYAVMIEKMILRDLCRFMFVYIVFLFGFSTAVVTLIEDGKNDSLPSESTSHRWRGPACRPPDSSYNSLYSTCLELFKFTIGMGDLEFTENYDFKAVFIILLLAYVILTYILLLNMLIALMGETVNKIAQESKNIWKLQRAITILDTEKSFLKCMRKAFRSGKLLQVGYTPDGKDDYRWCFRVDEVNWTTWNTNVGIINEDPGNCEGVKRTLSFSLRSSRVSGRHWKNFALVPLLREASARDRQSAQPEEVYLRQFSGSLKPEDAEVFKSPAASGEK
IC50 ([1]; read-out: IC50) [nM],Ki ([2]; read-out: Ki) [nM],Compound,further results
24,0.4,CC(C(=O)NCc1ccc(C(F)(F)F)nc1N1CCC(Cc2cc(F)cc(F)c2)CC1)c1ccc(NS(C)(=O)=O)c(F)c1 (racemic),
117,,CC(C(=O)NCc1ccc(C(F)(F)F)nc1N1CCN(c2ncccc2Cl)CC1)c1ccc(NS(C)(=O)=O)c(F)c1 (racemic),
25.1,0.8,CC(C(=O)NCc1ccc(C(F)(F)F)nc1N1CCCCCC1)c1ccc(NS(C)(=O)=O)c(F)c1 (racemic),
30,0.2,CC(C(=O)NCc1ccc(C(F)(F)F)nc1N1CCC(Cc2ccc(F)c(F)c2)CC1)c1ccc(NS(C)(=O)=O)c(F)c1 (racemic),
,26,CC(C)(C)c1ccc(CNC(=S)NCc2ccc(NS(C)(=O)=O)c(F)c2)cc1,IC50 ([1]; cho-k1): Not Active
,0.3,CC1CCCN1c1nc(C(F)(F)F)ccc1CNC(=O)[C@@H](C)c1ccc(NS(C)(=O)=O)c(F)c1 (stereo not given in full),
1210,20,C[C@H](C(=O)NCc1ccc(C(C)(C)C)cc1)c1ccc(NS(C)(=O)=O)c(F)c1,Activity (Rattus norvegicus [3]): Non-toxic; Ki [4]: 6.6 nM; Activity (Rattus norvegicus [5]): Active; IC50 [6]: 174 nM; Activity (Rattus norvegicus [7]): Non-toxic
737,7.1,C[C@H](C(=O)NCc1ccc(C(F)(F)F)nc1N1CC[C@H](NC(=O)OC(C)(C)C)C1)c1ccc(NS(C)(=O)=O)c(F)c1,
,4.4,O=C(/C=C/c1ccc(C(F)(F)F)nc1N1CCCCC1)Nc1ccc2cccnc2c1,IC50 ([1]; cho-k1): Not Active
,,CC(C(=O)NCc1ccc(C(F)(F)F)nc1)c1ccc(NS(C)(=O)=O)c(F)c1 (racemic),IC50 ([1]; cho-k1): Not Active
,,C[C@H](C(=O)NCc1ccc(C(F)(F)F)nc1N1CCC[C@H]1CO)c1ccc(NS(C)(=O)=O)c(F)c1,IC50 ([1]; cho-k1): Not Active
117,2.3,CC(C(=O)NCc1ccc(C(F)(F)F)nc1N1CCN(c2ccc(C(F)(F)F)cc2)CC1)c1ccc(NS(C)(=O)=O)c(F)c1 (racemic),
46.7,,C[C@H](C(=O)NCc1ccc(C(F)(F)F)nc1N1CCCCC1)c1ccc(NS(C)(=O)=O)c(F)c1,
17,0.2,Cc1ccc(CC2CCN(c3nc(C(F)(F)F)ccc3CNC(=O)C(C)c3ccc(NS(C)(=O)=O)c(F)c3)CC2)cc1 (racemic),
50,1.4,C[C@H](C(=O)NCc1ccc(C(F)(F)F)nc1N1CC[C@@H](OCc2ccccc2)C1)c1ccc(NS(C)(=O)=O)c(F)c1,
,0.43,CC(C(=O)NCc1ccc(C(F)(F)F)nc1N1CCCCC1)c1ccc(NS(C)(=O)=O)c(F)c1 (racemic),
116,1.2,O=C(/C=C/c1ccc(C(F)(F)F)nc1N1CCOCC1)Nc1ccc2cccnc2c1,
,,C[C@H](C(=O)NCc1ccc(C(F)(F)F)nc1N1CCC[C@H]1C(=O)N(C)C)c1ccc(NS(C)(=O)=O)c(F)c1,IC50 ([1]; cho-k1): Not Active
990,3.9,CC(C(=O)NCc1ccc(C(F)(F)F)nc1N1CCC(C(=O)c2ccc(F)cc2)CC1)c1ccc(NS(C)(=O)=O)c(F)c1 (racemic),
1130,27.2,CC1CCC(Nc2nc(C(F)(F)F)ccc2CNC(=O)C(C)c2ccc(NS(C)(=O)=O)c(F)c2)CC1 (racemic),
,103,C[C@H](C(=O)NCc1ccc(C(F)(F)F)nc1N1CC[C@H](N(C)C)C1)c1ccc(NS(C)(=O)=O)c(F)c1,
,,CC(C(=O)NCc1ccc(C(F)(F)F)nc1NCc1cccnc1)c1ccc(NS(C)(=O)=O)c(F)c1 (racemic),IC50 ([1]; cho-k1): Not Active; Ki ([2]; cho-k1): Not Active
426,2.1,CC(C(=O)NCc1ccc(C(F)(F)F)nc1N1CCC(CN(C)C)CC1)c1ccc(NS(C)(=O)=O)c(F)c1 (racemic),
209,2.6,C[C@H](C(=O)NCc1ccc(C(F)(F)F)nc1N1CCC[C@H]1C(=O)OC(C)(C)C)c1ccc(NS(C)(=O)=O)c(F)c1,
,101,C[C@H](C(=O)NCc1ccc(C(F)(F)F)nc1N1CC[C@@H](N(C)C)C1)c1ccc(NS(C)(=O)=O)c(F)c1,
,,CC(C(=O)NCc1ccc(C(F)(F)F)nc1N1CCC(O)CC1)c1ccc(NS(C)(=O)=O)c(F)c1 (racemic),IC50 ([1]; cho-k1): Not Active; Ki ([2]; cho-k1): Not Active
757,11,C[C@H](C(=O)NCc1ccc(C(F)(F)F)nc1N1CC[C@@H](NC(=O)OC(C)(C)C)C1)c1ccc(NS(C)(=O)=O)c(F)c1,

Compound,IC50 ([1]; read-out: IC50) [nM],Ki ([2]; read-out: Ki) [nM],further results
CC1CCN(c2nc(C(F)(F)F)ccc2CNC(=O)C(C)c2ccc(NS(C)(=O)=O)c(F)c2)CC1 (racemic),8.4,,
CC1CCN(c2nc(C(F)(F)F)ccc2CNC(=O)[C@@H](C)c2ccc(NS(C)(=O)=O)c(F)c2)CC1,6.3,0.2,Activity (Rattus norvegicus [3]): Non-toxic; Ki [4]: 0.01 nM; Emax at 3.16 mg/kg (Rattus norvegicus [8]): 60%; IC50 [6]: 0.8 nM; Activity (Rattus norvegicus [9]): Dose-dependent effect; ED50 (Rattus norvegicus [9]): 0.9 mg/kg; Activity (Mus musculus [10]): Active; Activity (Rattus norvegicus [7]): Non-toxic; Activity (Mus musculus [11]): Toxic; Activity (Mus musculus [12]): Non-toxic
CC1CCN(c2nc(C(F)(F)F)ccc2CNC(=O)[C@H](C)c2ccc(NS(C)(=O)=O)c(F)c2)CC1,254,9.8,
